{"source": "patent US8178506B2", "about": "“Oligomeric compounds and compositions for use in modulation of small non-coding RNAs” (Regulus Therapeutics Inc., priority 2003, dated 2012)", "key": {"mir-15a miRNA": {"test_system": "mir-15a miRNA", "assay": "pGL3-mir-15a sensor luciferase assay in HeLa cells", "type": "cell-based, human", "details": "HeLa, 3-, 10- or 30 nM", "excerpt": "In order to assess the ability of miRNAs to bind predicted miRNA binding sites and regulate the expression of the luciferase reporter, in some embodiments, expression systems based on the pGL3-Control (Promega Corp., Madison Wis.) reporter vector and comprising either a mir-15a, mir-21, or a mir-23b miRNA binding site were developed and used in transient transfections of HeLa cells to determine whether the endogenous mir-15a, mir-21, or mir-23b miRNAs, respectively, could repress luciferase reporter gene expression.\nThe pGL3-mir-15a sensor plasmid was created by cloning the sequence ([…]; SEQ ID NO: 369), complementary to the mir-15a miRNA, into the Xba site of the pGL3-Control plasmid, placing the potential miRNA-binding site in the 3′UTR of the luciferase reporter. This reporter plasmid was used to transfect HeLa cells and it was observed that the endogenous mir-15a miRNA was able to inhibit luciferase expression from the pGL3-mir-15a sensor plasmid. Thus, to further evaluate the ability of the mir-15a miRNA to bind this target site encoded by the pGL3-mir-15a sensor plasmid, and to assess the ability of oligomeric compounds to interfere with mir-15a-mediated silencing, pGL3-mir-15a sensor-expressing HeLa cells were treated with varying concentrations (3-, 10- or 30 nM) of the following oligomeric compounds: ISIS Number 327951 (SEQ ID NO: 369) is a uniform 2′-MOE compound targeting the mature mir-15a-1 miRNA. ISIS Numbers 356213 (SEQ ID NO: 878), 356215 (SEQ ID NO: 879), 356216 (SEQ ID NO: 880), 356218 (SEQ ID NO: 881), 356221 (SEQ ID NO: 882), 356227 (SEQ ID NO: 883) and 356229 (SEQ ID NO: 884) are phosphorothioate, uniform 2′-MOE oligomeric compounds designed and synthesized to target the entire length of the mir-15a pri-miRNA molecule (described in detail in Example 28, below). […] The data presented in Table 42 are the average of three trials and are presented as percent untreated control (luciferase plasmid only, not treated with oligomeric compound) luciferase expression, normalized to pRL-CMV levels."}, "mir-15a pri-miRNA": {"test_system": "mir-15a pri-miRNA", "assay": "mir-15a pri-miRNA expression in T47D cells (real-time RT-PCR)", "type": "cell-based, human", "details": "100 nM", "excerpt": "The gapmer oligomeric compounds targeting the mir-15b and mir-15-a-1 mature miRNAs described above were also transfected into T47D cells according to standard procedures. In addition, uniform 2′-MOE and 2′-MOE gapmer oligomeric compounds targeting the mature mir-15a-1 and mir-15b miRNAs were also transfected into T47D cells, for analysis of their effects on mir-15a-1 and mir-15b pri-miRNA levels. The oligomeric compounds ISIS Number 327927 (SEQ ID NO: 345), a uniform 2′-MOE compound and ISIS Number 345391 (SEQ ID NO: 345), a 2′-MOE 5-10-7 gapmer compound, both target mir-15b. The oligomeric compounds ISIS Number 327951 (SEQ ID NO: 369), a uniform 2′-MOE compound, and ISIS Number 345411 (SEQ ID NO: 369), a 2′-MOE 5-10-7 gapmer compound, both target mir-15a-1. Oligomeric compounds ISIS Number 129686 ([…]; SEQ ID NO: 901), and ISIS Number 129691 ([…]; SEQ ID NO:902), both universal scrambled controls, as well as ISIS Number 116847 ([…]; SEQ ID NO: 844) targeting an unrelated gene, PTEN, were used as negative controls. ISIS Numbers 129686, 129691, and 116847 are phosphorothiated 2′-MOE 5-10-5 gapmers, and all cytosines are 5-methylcytosines. T47D cells (seeded in 12-well plates) were treated with these oligomeric compounds, and RNA was isolated from the treated cells by lysing in 1 mL TRIZOL™ (Invitrogen) and total RNA was prepared using the manufacturer's recommended protocols. To assess the effects of these compounds on expression of the mir-15a or mir-15b pri-miRNA molecules, real-time RT-PCR analysis was performed using either the primer/probe set specific for the mir-15a pri-miRNA molecule described above, or a primer probe set specific for the mir-15b pri-miRNA molecule: ISIS 339320 ([…]; SEQ ID NO: 903) was used as the forward primer for the mir-15b pri-miRNA, ISIS 339321 ([…] ACTGT; SEQ ID NO: 904) was used as the reverse primer for the mir-15b pri-miRNA, and ISIS 339322 ([…]; SEQ ID NO: 905) was used as the probe. Total RNA was quantified using RiboGreen™ RNA quantification reagent (Molecular Probes, Inc. Eugene, Oreg.), expression levels observed for each target were normalized to 5.8S rRNA, and values are expressed relative to the untreated control. Inhibition of expression of the mir15a or mir-15b pri-miRNA molecules upon treatment with these oligomeric compounds is was assessed and expressed as a percentage of RNA levels in untreated control cells.\nUsing the real-time RT-PCR methods described, the expression levels of the mir-15a pri-miRNA were compared in T47D cells treated with the nested series of uniform 2′-MOE oligomeric compounds, targeting and spanning the entire length of the mir-15a pri-miRNA. The region encompassing the mir-15a primary transcript (the complement of nucleotides 31603159 to 31603468 of GenBank Accession number NT—024524.13; AAATAATTATG […]) is incorporated herein as SEQ ID NO: 906. ISIS Number 356215 (SEQ ID NO: 879) targets a region flanking and immediately 5′ to the predicted 5′ Drosha cleavage site in the mir-15a pri-miRNA. ISIS Number 356218 (SEQ ID NO: 881) targets aregion in the loop of the mir-15a pri-miRNA. ISIS 356227 (SEQ ID NO: 883) targets a region flanking and immediately 3′ to the predicted 3′ Drosha cleavage site in the mir-15a pri-miRNA. Additionally, oligomeric compound ISIS 327951 (SEQ ID NO: 369), a uniform 2′-MOE compound targeting the mature mir-15a-1 miRNA, was tested for comparison. Oligomeric compounds ISIS 327901 (SEQ ID NO: 319) targeting the mature mir-143 miRNA; ISIS 129690, ([…]; SEQ ID NO: 907), a phosphorothioate 5-10-5 MOE gapmer used as a universal scrambled control; and ISIS 116847 ([…]; SEQ ID NO: 844), a uniform 5-10-52′-MOE gapmer targeting an unrelated gene, PTEN, were used as negative controls. Using the transfection methods previously described, T47D cells were treated with 100 nM of each of these oligomeric compounds. […]"}, "mir-30a pri-miRNA": {"test_system": "mir-30a pri-miRNA", "assay": "mir-30a luciferase reporter (pGL3C-M30-4X) assay in 293T cells", "type": "cell-based, human", "details": "for percent control luciferase expression: 150 nM oligomeric compound, then mir-30a pri-miRNA mimic 200 nM, pGL3C-M30-4X normalized to pRL-CMV; for reversing the mir-30a miRNA-mediated silencing of luciferase reporter: 150 nM, then mir-30a pri-miRNA mimic", "excerpt": "In one embodiment of the invention, oligomeric compounds targeting the hairpin structure of mir-30a pri-miRNA were designed and tested for their effects on miRNA signaling in 293T cells (American Type Culture Collection (Manassas, Va.)).\nA synthetic DNA fragment comprised of four tandem repeats of the target site for mir-30a was cloned into the vector pGL3-C (purchased from Promega Corp., Madison Wis.) at the unique XbaI site (pGL3C-M30-4X). This places the target site in the 3′UTR of the luciferase reporter vector. An oligomeric compound mimicking the mir-30a pri-miRNA ([…] […], herein incorporated as SEQ ID NO: 1749) was in vitro transcribed using T7 RNA polymerase and a DNA template produced by PCR (the T7 promoter is shown in bold).\nOn the day prior to the experiment 24-well plates were seeded with 293T cells at 50% confluency. The following morning cells were treated with oligomeric compounds targeted to the mir-30a pri-miRNA mimic. All of the compounds are 20 nucleobases in length having either a phosphorothioate backbone throughout (PS) or a phosphodiester backbone throughout (PO). […] All cytidine residues are 5-methylcytidines. The remaining compounds in the table have 2′-methoxyethoxy (MOE) nucleotides throughout with either a phosphorothioate (PS) or phosphodiester (PO) internucleoside linkages.\nCells were washed once with PBS then oligomeric compounds were added to triplicate wells at 150 nM in OPTI-MEM™ media and 4.5 μl/ml LIPOFECTIN™ reagent (Invitrogen Corporation, Carlsbad, Calif.). After 3 hours, the media was removed, and the cells were treated with the mir-30a pri-miRNA mimic at 200 nM in OPTI-MEM™ with 6 μl/ml LIPOFECTIN™ reagent. After 3 hours the media was removed from the cells. The reporter plasmid, pGL3C-M30-4X, was then transfected using SuperFect reagent. 20 μg of pGL3C-M30-4X and 2 μg of pRL-CMV, a plasmid expressing Renilla luciferase, were suspended in 600 μL of serum-free DMEM to which 120 μl of Superfect was added. After a 5 minute incubation, 6 mls of DMEM+10% FCS was added. 125 μL of the plasmid/SuperFect suspension was added to each well. After a 2 hour incubation cells were washed and fresh growth media added. Cells were incubated overnight.\nThe following morning the media was removed and the cells were lysed in 120 μL passive lysis buffer (PLB; Promega). 40 μL of the lysate was then assayed for Photinus (PL) and Renilla (RL) luciferases using a Dual Luciferase Assay kit (Promega) according to the manufacturer's protocol. The results below are given as percent pGL3C-M30-4× expression (PL) normalized to pRL-CMV expression (RL). The 20-nucleobase oligonucleotide random-mer ISIS Number 29848 was used as a negative control."}, "IL-12 mRNA": {"test_system": "IL-12 mRNA", "assay": "IL-12 mRNA in LPS-activated primary murine macrophages", "type": "cell-based, mouse", "details": "normalized to LPS-treated cells without oligomeric compound"}, "HuVECs": {"test_system": "HuVECs", "assay": "Endothelial tube formation assay in HuVECs", "details": "75 nM oligomeric compound, Table 59", "protocol": "In some embodiments, HUVECs are used to measure the effects of oligomeric compounds of the invention on endothelial tube formation activity. The tube formation assay is performed using an in vitro Angiogenesis Assay Kit (Chemicon International, Temecula, Calif.).\nUntreated control cells receive LIPOFECTIN™ only.\nApproximately fifty hours after transfection, cells are transferred to 96-well plates coated with ECMatrix™ (Chemicon International). Under these conditions, untreated HUVECs form tube-like structures. After an overnight incubation at 37° C., treated and untreated cells are inspected by light microscopy. Tube formation in cells treated with oligomeric compounds is compared to that in untreated control cells. Individual wells are assigned discrete scores from 1 to 5 depending on the extent of tube formation. A score of 1 refers to a well with no tube formation while a score of 5 is given to wells where all cells are forming an extensive tubular network.\nIn one embodiment, primary human umbilical vein endothelial cells (HuVECs) were used to measure the effects of oligomeric compounds targeted to miRNAs on tube formation activity. HuVECs were routinely cultured in EBM (Clonetics Corporation, Walkersville, Md.) supplemented with SingleQuots supplements (Clonetics Corporation, Walkersville, Md.). […] HuVECs are plated at 3000 cells/well in 96-well plates. One day later, cells are transfected with oligomeric compounds. The tube formation assay is performed using an in vitro Angiogenesis Assay Kit (Chemicon International, Temecula, Calif.).\nISIS 29248 and ISIS 196103 are chimeric 5-10-52′-MOE gapmer oligonucleotides. […] All cytidine residues are 5-methylcytidines. ISIS 342672 (SEQ ID NO: 789) contains 13 mismatches with respect to the mature mir-143 miRNA, and was also used as a negative control. ISIS 342672 is a uniform 2′-MOE phosphorothioate oligomeric compound 22 nucleotides in length. All cytidine residues are 5-methylcytidines.\nOligomeric compound was mixed with LIPOFECTIN™ (Invitrogen Life Technologies, Carlsbad, Calif.) in OPTI-MEM™ (Invitrogen Life Technologies, Carlsbad, Calif.) to achieve a final concentration of 75 nM of oligomeric compound and 2.25 μg/mL LIPOFECTIN™. Before adding to cells, the oligomeric compound, LIPOFECTIN™ and OPTI-MEM™ were mixed thoroughly and incubated for 0.5 hrs. Untreated control cells received LIPOFECTIN™ only. […] Compounds targeted to miRNAs were tested in triplicate, and ISIS 29848 was tested in up to six replicates. […] 100 μL of full growth medium was added to each well. Fifty hours after transfection, cells are transferred to 96-well plates coated with ECMa-trix™ (Chemicon Inter-national). Under these conditions, untreated HuVECs form tube-like structures."}}, "note": "In the oligonucleotide strings, read from the 5' end, every base follows the letter of its sugar. An asterisk marks phosphorothioate; unmarked linkages are phosphodiester. Other units and linkages are bracketed, terminal groups are in braces. A string of capitals states the bases alone. e = 2'-O-(2-methoxyethyl) (MOE); [5mC] = 5-methylcytosine; d = 2'-deoxy (DNA)", "data": [{"substance": "CACAAACCATTATGTGCTGCTA (chemistry not given here) [ISIS 327951, uniform 2′-MOE PS; targets mir-15a-1]", "values": [{"measurement": "luciferase activity from the pGL3-mir-15a sensor plasmid", "setting": "mir-15a miRNA", "value": "blocked the inhibitory effect of mir-15a"}, {"measurement": "levels of the mir-15a pri-miRNA molecule", "setting": "mir-15a pri-miRNA", "value": "stimulate an increase in levels of the mir-15a pri-miRNA molecule"}]}, {"substance": "328086 (antisense e[5mC]*eA*eT*e[5mC]*eT*dG*dT*dG*dG*d[5mC]*dT*dT*d[5mC]*dA*d[5mC]*eA*eG*e[5mC]*eT*eT) [compound 328086]", "values": [{"measurement": "percent control luciferase expression", "setting": "mir-30a pri-miRNA", "value": 95, "unit": "percent control"}]}, {"substance": "328076 (antisense eG*e[5mC]*eT*eT*e[5mC]*dA*d[5mC]*dA*dG*d[5mC]*dT*dT*d[5mC]*d[5mC]*dA*eG*eT*e[5mC]*eG*eA) [compound 328076]", "values": [{"measurement": "percent control luciferase expression", "setting": "mir-30a pri-miRNA", "value": 57, "unit": "percent control"}]}, {"substance": "328080 (antisense TGAAAGCCCATCTGTGGCTT; all 2'-MOE, all phosphorothioate, methylation of C not given here) [compound 328080]", "values": [{"measurement": "percent control luciferase expression", "setting": "mir-30a pri-miRNA", "value": 72, "unit": "percent control"}]}, {"substance": "ISIS 328088: 5-10-5 2′-MOE gapmer, pseudo half-knot compound targeting the mir-30a pri-miRNA (antisense eA*eA*eG*e[5mC]*e[5mC]*d[5mC]*dA*dT*d[5mC]*dT*dG*dT*dG*dG*d[5mC]*eT*eT*e[5mC]*eA*e[5mC]; pseudo half-knot compound)", "values": [{"measurement": "reversing the mir-30a miRNA-mediated silencing of luciferase reporter", "setting": "mir-30a pri-miRNA", "value": "restoring luciferase reporter expression to near control levels"}]}, {"substance": "328078 (antisense e[5mC]*e[5mC]*e[5mC]*eA*eT*d[5mC]*dT*dG*dT*dG*dG*d[5mC]*dT*dT*d[5mC]*eA*e[5mC]*eA*eG*e[5mC]) [compound 328078]", "values": [{"measurement": "percent control luciferase expression", "setting": "mir-30a pri-miRNA", "value": 63, "unit": "percent control"}]}, {"substance": "ISIS 328086: 5-10-5 2′-MOE gapmer, pseudo half-knot compound targeting the mir-30a pri-miRNA (antisense e[5mC]*eA*eT*e[5mC]*eT*dG*dT*dG*dG*d[5mC]*dT*dT*d[5mC]*dA*d[5mC]*eA*eG*e[5mC]*eT*eT; pseudo half-knot compound)", "values": [{"measurement": "reversing the mir-30a miRNA-mediated silencing of luciferase reporter", "setting": "mir-30a pri-miRNA", "value": "restoring luciferase reporter expression to near control levels"}]}, {"substance": "328075 (antisense GCTTCACAGCTTCCAGTCGA; all 2'-MOE, all phosphorothioate, methylation of C not given here) [compound 328075]", "values": [{"measurement": "percent control luciferase expression", "setting": "mir-30a pri-miRNA", "value": 55, "unit": "percent control"}]}, {"substance": "327874 (antisense eG*e[5mC]*eT*eG*e[5mC]*eA*eA*eA*e[5mC]*eA*eT*e[5mC]*e[5mC]*eG*eA*e[5mC]*eT*eG*eA*eA*eA*eG) [compound 327874]", "values": [{"measurement": "IL-12 mRNA expression, −IFN % UTC", "setting": "IL-12 mRNA; 300 nM oligomeric compound and LPS, no IFN-gamma pretreatment, single experiment", "value": 202, "unit": "% UTC"}, {"measurement": "IL-12 mRNA expression, +IFN % UTC", "setting": "IL-12 mRNA; 300 nM oligomeric compound, stimulation with IFN-gamma and LPS, average of 2 experiments", "value": 15, "unit": "% UTC"}, {"measurement": "% Activity Relative to UTC (tube formation)", "setting": "HuVECs", "value": 46.7, "unit": "%"}, {"measurement": "percent control luciferase expression", "setting": "mir-30a pri-miRNA", "value": 66, "unit": "percent control"}]}]}
